Values belong to the molecule of their own block, whether it stands above or below them.
Assays:
[1] = molecular target: T1, ALK5 T204D (kinase domain of human ALK5, amino acids 200-503) (Homo sapiens, UniProt P36897, T204D); test: ALK5 kinase activity, [33P] phosphate incorporation into casein; assay type: biochemical; details: casein substrate, 1 μM unlabelled ATP
T1 construct: The kinase domain of human ALK5 (amino acids 200-503); made in house; host or cells: insect cells (baculovirus expression)
T1 sequence (P36897 200-503 T204D): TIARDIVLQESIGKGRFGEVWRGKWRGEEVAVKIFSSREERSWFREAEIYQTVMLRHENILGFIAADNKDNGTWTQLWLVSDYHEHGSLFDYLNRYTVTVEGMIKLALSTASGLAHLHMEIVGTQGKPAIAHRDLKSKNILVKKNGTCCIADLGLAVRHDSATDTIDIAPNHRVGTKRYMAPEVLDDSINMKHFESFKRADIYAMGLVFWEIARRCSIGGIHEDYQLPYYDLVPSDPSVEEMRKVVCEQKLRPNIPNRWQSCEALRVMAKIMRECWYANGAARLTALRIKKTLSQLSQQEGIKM
Method: The kinase activity of ALK5 is assessed by measuring radiolabelled phosphate [33P] incorporation in to the generic substrate, casein. The kinase domain of human ALK5 (amino acids 200-503) is fused to an N-terminal histidine tag. The kinase activity of ALK5 is rendered constitutive via point mutation at amino acid 204 (threonine to aspartate modification, ALK5 T204D) and the kinase construct is engineered to be expressed from a baculovirus expression construct in insect cells. The purified, recombinantly-expressed histidine-tagged ALK5 T204D protein is dissolved at 5.4 mg/ml in 50 mM Tris-HCl pH 8.0, 150 mM NaCl, 5 mM DTT. ALK5 T204D is dissolved to 2.5 μg/ml in assay buffer (Assay buffer: 20 mM Tris-HCl pH 7.4, 10 mM MgCl2, 2 mM MnCl2) on the day of use.
Test compounds and reference compounds are dissolved in assay buffer without DTT containing 5% (v/v) DMSO. Stock solutions of test and reference compounds are diluted in assay buffer with DTT (1.25 mM) containing 4.5% (v/v) DMSO. 10 μl of test or reference compound are added to the appropriate wells of 96 well U-bottomed plate. Total enzyme activity is determined by measuring ALK5 T204D activity in the absence of ALK5 kinase inhibitor reference compounds. Non-specific binding (NSB) is determined by measuring the activity of ALK5 T204D in the presence of ALK5 kinase inhibitor reference compounds. 10 μl of dephosphorylated casein stock solution (dephosphorylated casein is dissolved in ddH2O at 20 mg/ml) is added per well (200 μg/well final assay concentration). 20 μl of ALK5 T204D (2.5 μg/ml solution) is added per well (50 ng/well final assay concentration). The plates are left to incubate at room temperature for 10 minutes.
10 μl of ATP mix is added to the well to initiate the reaction (0.66 nM [^33P]ATP/1 μM unlabelled ATP/well final assay concentration). The ATP mix is prepared as follows, unlabelled ATP (3 mM) is dissolved in ddH2O and pH adjusted to 7.4. The stock concentration of [^33P]ATP is 10 μCi/μl. The appropriate volume of [^33P]ATP is added to unlabelled ATP solution such that the final assay concentration per well is 0.1 μCi. Following addition of the ATP mix, the plates are incubated at room temperature for 50 minutes. The kinase reaction is terminated by the addition of 50 μL Stop Buffer (20 mM Tris-HCl pH 7.4, 10 mM EDTA).
75 μl/well from the reaction plate is transferred to a Multiscreen-IP plate (MultiScreen-IP plates are prepared by added 50 μL of 70% (v/v) ethanol per well and incubated for 5 minutes at room temperature. The ethanol is removed by aspiration via a MultiScreen HTS Vaccum Manifold unit (Millipore, Cat no: MSVMHT500). The plates are washed twice by adding 200 μl/well ddH2O). The MultiScreen-IP plate is incubated at room temperature for 30 minutes to allowing binding of casein to the plate. The MultiScreen-IP plates are washed three times by adding 200 μl/well 100 mM phosphoric acid solution and the gasket is carefully removed from the back of the MultiScreen-IP plate and the plate dried in the oven for 30 minutes. The MultiScreen-IP plate is backsealed, 50 μL of Microscint™20 is added, then the plates are topsealed and radiolabelled casein detected and quantified on a TopCount™ plate-reader using the ^33P scintillation protocol.

[2] = system: dimethylnitrosamine induced liver fibrosis; details: rat, cited from earlier work
[3] = system: bleomycin-induced pulmonary fibrosis; details: bleomycin-treated rats; cited from earlier work
[4] = dimethylnitrosamine induced liver fibrosis, given therapeutically

Molecule: CC(C)N1CCN(C(=O)c2ccc(-c3cncc(-c4cc(Cl)nc(-c5ccccn5)n4)c3)cc2)CC1 [Example 1, {4-[5-(6-Chloro-2-pyridin-2-yl-pyrimidin-4-yl)-pyridin-3-yl]-phenyl}-(4-isopropyl-piperazin-1-yl)-methanone]
- IC50 [1]: 335 nM

Molecule: CC(C)N1CCN(C(=O)c2ccc(-c3cncc(-c4ccnc(-c5ccccn5)n4)c3)cc2)CC1 [Example 3, (4-Isopropyl-piperazin-1-yl)-{4-[5-(2-pyridin-2-yl-pyrimidin-4-yl)-pyridin-3-yl]-phenyl}-methanone]
- IC50 [1]: 592 nM

Molecule: Cc1cccc(-c2nc(OCCc3c[nH]c4ccccc34)cc(-c3cccnc3)n2)n1 [Example 6, 3-{2-[2-(6-Methyl-pyridin-2-yl)-6-pyridin-3-yl-pyrimidin-4-yloxy]-ethyl}-1H-indole]
- IC50 [1]: 261 nM

Molecule: c1ccc(-c2cc(-c3cn[nH]c3-c3ccccn3)ccn2)cc1 [GW6604]
- inhibition of extracellular matrix deposition [2, 4]: 60%
- prevention of the death rate [2, 4]: 40%
- side effects ([2]; during the 3 weeks treatment): no obvious side effects

B1: Follistatin: an antagonist of activin signalling (protein, UniProt P19883 30-344, looked up)
Follistatin: GNCWLRQAKNGRCQVLYKTELSKEECCSTGRLSTSWTEEDVNDNTLFKWMIFNGGAPNCIPCKETCENVDCGPGKKCRMNKKNKPRCVCAPDCSNITWKGPVCGLDGKTYRNECALLKARCKEQPELEVQYQGRCKKTCRDVFCPGSSTCVVDQTNNAYCVTCNRICPEPASSEQYLCGNDGVTYSSACHLRKATCLLGRSIGLAYEGKCIKAKSCEDIQCTGGKKCLWDFKVGRGRCSLCDELCPDSKSDEPVCASDNATYASECAMKEAACSSGVLLEVKHSGSCNSISEDTEEEEEDEDQDYSFPISSILEW
- effect on lung fibrosis [3]: attenuated lung fibrosis

Next, values leading:

- IC50 [1]: 265 nM
Molecule: Cc1cccc(-c2nc(OCc3ccccc3)cc(-c3cncc(-c4ccc(C(=O)N5CCN(C(C)C)CC5)cc4)c3)n2)n1 [Example 8, (4-{5-[6-Benzyloxy-2-(6-methyl-pyridin-2-yl)-pyrimidin-4-yl]-pyridin-3-yl}-phenyl)-(4-isopropyl-piperazin-1-yl)-methanone]

- IC50 [1]: 24 nM
Molecule: CC(C)N1CCN(C(=O)c2ccc(-c3cncc(-c4cc(OCc5ccccc5)nc(-c5ccccn5)n4)c3)cc2)CC1 [Example 11, {4-[5-(6-Benzyloxy-2-pyridin-2-yl-pyrimidin-4-yl)-pyridin-3-yl]-phenyl}-(4-isopropyl-piperazin-1-yl)-methanone]

Reference: patent US8431578B2, “Organic compounds” (Novartis AG, priority 2008, dated 2013)
